pEC50, pKd: −log10 of the molar value. Read-outs that look alike come from different tables or passages of the source. *1 amine or outer side, *2 acyl side, *3 side chain or, on linkers, in order; H or OH if unused. Where a SMILES comes first, the peptide text is derived from it. Bridges are numbered along the chain shown (N, C = ends). [ ]: non-standard residue; d: D form. The star is where a group is joined. X2 = O=C(CCOCC(COCCC(=O)NCCOCCOCCOCCOC[C@H]1OC[C@H](Nc2cncc(C(F)(F)F)n2)[C@@H](O)[C@H]1O)NCC(=O)*)NCCOCCOCCOCCOC[C@H]1OC[C@H](Nc2cncc(C(F)(F)F)n2)[C@@H](O)[C@H]1O; X1 = O=C([C@@H]1C[C@H](N[*:3])CN1[*:1])[*:2]
How the values were obtained:
IgG = assay: Affinity to IgG by surface plasmon resonance (SPR); format: binding
Protocol: Immobilization levels ranging from 1000-1300 resonance units (RU) are obtained. The running buffer is 10 mM HEPES, pH 7.4, 400 mM NaCl, 0.005% P20, […].

[1] = target: T1, ASGPR receptor on the cell surface (HepG2 cells) (Homo sapiens, UniProt P07306); assay: Ternary complex formation assay (flow cytometry, HepG2); format: cell-based
T1 construct: host or cells: HepG2
T1 sequence (P07306 1-291): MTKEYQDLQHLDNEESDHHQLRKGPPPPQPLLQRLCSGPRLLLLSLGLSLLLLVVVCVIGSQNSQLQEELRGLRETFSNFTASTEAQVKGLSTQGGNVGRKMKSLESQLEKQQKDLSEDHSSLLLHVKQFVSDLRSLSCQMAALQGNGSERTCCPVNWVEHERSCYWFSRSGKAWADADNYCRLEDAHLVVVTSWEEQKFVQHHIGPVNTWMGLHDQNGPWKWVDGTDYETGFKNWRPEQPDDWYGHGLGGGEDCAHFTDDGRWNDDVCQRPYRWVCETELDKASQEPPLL
T1 sequence (P07307 1-311 partner): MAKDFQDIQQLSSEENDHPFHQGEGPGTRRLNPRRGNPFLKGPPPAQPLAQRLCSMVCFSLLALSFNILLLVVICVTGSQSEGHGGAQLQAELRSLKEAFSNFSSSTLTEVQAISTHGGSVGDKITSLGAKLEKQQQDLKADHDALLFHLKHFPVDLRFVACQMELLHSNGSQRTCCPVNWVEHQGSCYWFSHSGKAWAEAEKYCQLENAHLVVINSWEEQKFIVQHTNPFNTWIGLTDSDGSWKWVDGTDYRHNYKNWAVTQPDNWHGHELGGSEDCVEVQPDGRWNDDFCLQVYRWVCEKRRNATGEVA
In short: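 HepG2 cells (1×10^5/well) incubated 1 h at 4 °C with 100 nM AF488-labeled anti-human IgG plus serial IgG-based degrader, or 100 nM AF488 rabbit anti-DNP plus serial DNP-based degrader. After washing, cell-associated AF488 MFI read by flow cytometry; peak MFI marks optimal degrader concentration for ternary complex.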

HepG2 cells = assay: Cellular uptake assay of AF488-labeled antibody (HepG2); format: cell-based; details: HepG2 cells
In short: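 Ternary-complex uptake via ASGPR was imaged after fixation: the read-out is AF488-positive HepG2 cells divided by total DAPI nuclei. Degrader dilutions (IgG- or DNP-based, 0.1% DMSO final) were co-incubated 6 h at 37° C. with 100 nM of the corresponding fluorescent antibody.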

ASGPR = target: T2, ASGPR (Homo sapiens, UniProt P07306); assay: Affinity to ASGPR by surface plasmon resonance (SPR)
T2 sequence (P07306 1-291): T1 sequence (P07306 1-291)

[2] = Biacore 8K, 25° C., IgG on CM5 chip, read-out: IgG SPR Binding Kd
[3] = 100 nM AF488-labeled antibody, 37° C. for 6 hours, class symbols, read-out: Uptake Assay EC50
[4] = TCF EC50, HepG2 cells, ternary complex formation

Compound	pKd (IgG; SPR, read-out: IgG KD)	pEC50 ([1]; HepG2 cells, ternary complex formation, read-out: TCF EC50)	pEC50 (HepG2 cells; read-out: Uptake EC50)	pKd (ASGPR)	pKd (IgG; [2])	pEC50 [1]	pEC50 ([1]; read-out: Ternary Complex EC50)	pEC50 (HepG2 cells; [3])	pEC50 [1, 4]	pKd (ASGPR; read-out: ASGPR KD)
CC(C)C[C@@H]1NC(=O)[C@H](Cc2cnc[nH]2)NC(=O)[C@H](Cc2c[nH]c3ccccc23)NC(=O)[C@H](C)NC(=O)[C@@H]2CSSC[C@H](NC(=O)[C@H](Cc3c[nH]c4ccccc34)NC(=O)[C@H](C(C)C)NC(=O)[C@H](CC(C)C)NC(=O)[C@H](CCC(=O)O)NC(=O)CNC1=O)C(=O)N[C@@H]([C@@H](C)O)C(=O)N1CCC[C@@H]1C(=O)N1C[C@@H](NC(=O)c3ccc(C(=O)NC[C@H]4OC[C@H](Nc5cncc(C(F)(F)F)n5)[C@@H](O)[C@H]4O)cc3)C[C@H]1C(=O)N[C@@H](CC(=O)O)C(=O)N2 [Compound 67]	> 7.00	< 6.00	< 6.00	> 7.00	–	–	–	–	–	–
CC(C)C[C@@H]1NC(=O)[C@H](Cc2c[nH]cn2)NC(=O)[C@H](Cc2c[nH]c3ccccc23)NC(=O)[C@H](C)NC(=O)[C@@H]2CSSC[C@H](NC(=O)[C@H](Cc3c[nH]c4ccccc34)NC(=O)[C@H](C(C)C)NC(=O)[C@H](CC(C)C)NC(=O)[C@H](CCC(=O)O)NC(=O)CNC1=O)C(=O)N[C@@H]([C@@H](C)O)C(=O)N1CCC[C@@H]1C(=O)N1C[C@@H](NC(=O)CCCc3cn(CCCCCC(=O)NC(COCCC(=O)NCCOCCOCCOCCOC[C@H]4OC[C@H](Nc5nccc(C(F)(F)F)n5)[C@@H](O)[C@H]4O)COCCC(=O)NCCOCCOCCOCCOC[C@H]4OC[C@H](Nc5nccc(C(F)(F)F)n5)[C@@H](O)[C@H]4O)nn3)C[C@H]1C(=O)N[C@@H](CC(=O)O)C(=O)N2 [Compound 53]	> 7.00	–	> 7.00	> 7.00	> 7.00	> 7.00	> 7.00	> 7.00	–	–
CC(C)C[C@@H]1NC(=O)[C@H](Cc2c[nH]cn2)NC(=O)[C@H](Cc2c[nH]c3ccccc23)NC(=O)[C@H](C)NC(=O)[C@@H]2CSSC[C@H](NC(=O)[C@H](Cc3c[nH]c4ccccc34)NC(=O)[C@H](C(C)C)NC(=O)[C@H](CC(C)C)NC(=O)[C@H](CCC(=O)O)NC(=O)CNC1=O)C(=O)N[C@@H]([C@@H](C)O)C(=O)N1CCC[C@@H]1C(=O)N1C[C@@H](NC(=O)CCOCCNC(=O)CCCc3cn(CCCCCC(=O)NC(COCCC(=O)NCCOCCOCCOCCOC[C@H]4OC[C@H](Nc5nccc(C(F)(F)F)n5)[C@@H](O)[C@H]4O)COCCC(=O)NCCOCCOCCOCCOC[C@H]4OC[C@H](Nc5nccc(C(F)(F)F)n5)[C@@H](O)[C@H]4O)nn3)C[C@H]1C(=O)N[C@@H](CC(=O)O)C(=O)N2 [Compound 6]	–	–	–	> 7.00	> 7.00	> 7.00	–	> 7.00	–	–
CC(C)C[C@@H]1NC(=O)[C@H](Cc2cnc[nH]2)NC(=O)[C@H](Cc2c[nH]c3ccccc23)NC(=O)[C@H](C)NC(=O)[C@@H]2CSSC[C@H](NC(=O)[C@H](Cc3c[nH]c4ccccc34)NC(=O)[C@H](C(C)C)NC(=O)[C@H](CC(C)C)NC(=O)[C@H](CCC(=O)O)NC(=O)CNC1=O)C(=O)N[C@@H]([C@@H](C)O)C(=O)N1CCC[C@@H]1C(=O)N1C[C@@H](NC(=O)COCCOCC(=O)NC[C@H]3OC[C@H](Nc4cncc(C(F)(F)F)n4)[C@@H](O)[C@H]3O)C[C@H]1C(=O)N[C@@H](CC(=O)O)C(=O)N2 [Compound 42]	> 7.00	–	> 7.00	> 7.00	–	> 7.00	> 7.00	> 7.00	–	–
CC(C)C[C@@H]1NC(=O)[C@H](Cc2c[nH]cn2)NC(=O)[C@H](Cc2c[nH]c3ccccc23)NC(=O)[C@H](C)NC(=O)[C@@H]2CSSC[C@H](NC(=O)[C@H](Cc3c[nH]c4ccccc34)NC(=O)[C@H](C(C)C)NC(=O)[C@H](CC(C)C)NC(=O)[C@H](CCC(=O)N(C)C)NC(=O)CNC1=O)C(=O)N[C@@H]([C@@H](C)O)C(=O)N1CCC[C@@H]1C(=O)N1C[C@@H](NC(=O)CNC(COCCC(=O)NCCOCCOCCOCCOC[C@H]3OC[C@H](Nc4cncc(C(F)(F)F)n4)[C@@H](O)[C@H]3O)COCCC(=O)NCCOCCOCCOCCOC[C@H]3OC[C@H](Nc4cncc(C(F)(F)F)n4)[C@@H](O)[C@H]3O)C[C@H]1C(=O)N[C@@H](CC(N)=O)C(=O)N2 [Compound 78] (cyclo(AWHLGE(NMe2)LVWCT[dP][X1](X2)NC); disulfide 10-15)	> 7.00	–	> 7.00	> 7.00	–	–	–	–	> 7.00	–
CC(C)C[C@@H]1NC(=O)[C@H](Cc2c[nH]cn2)NC(=O)[C@H](Cc2c[nH]c3ccccc23)NC(=O)[C@H](C)NC(=O)[C@@H]2CSSC[C@H](NC(=O)[C@H](Cc3c[nH]c4ccccc34)NC(=O)[C@H](C(C)C)NC(=O)[C@H](CC(C)C)NC(=O)[C@H](CCC(=O)O)NC(=O)CNC1=O)C(=O)N[C@@H]([C@@H](C)O)C(=O)N1CCC[C@@H]1C(=O)N1C[C@@H](NC(=O)CNC(COCCC(=O)NCCOCCOCCOCCOC[C@H]3OC[C@H](Nc4cncc(C(F)(F)F)n4)[C@@H](O)[C@H]3O)COCCC(=O)NCCOCCOCCOCCOC[C@H]3OC[C@H](Nc4cncc(C(F)(F)F)n4)[C@@H](O)[C@H]3O)C[C@H]1C(=O)N[C@@H](CC(=O)O)C(=O)N2 [Compound 45]	> 7.00	–	–	> 7.00	–	> 7.00	–	> 7.00	–	–
CC(C)C[C@@H]1NC(=O)[C@H](Cc2cnc[nH]2)NC(=O)[C@H](Cc2c[nH]c3ccccc23)NC(=O)[C@H](C)NC(=O)[C@@H]2CSSC[C@H](NC(=O)[C@H](Cc3c[nH]c4ccccc34)NC(=O)[C@H](C(C)C)NC(=O)[C@H](CC(C)C)NC(=O)[C@H](CCC(=O)N(C)C)NC(=O)CNC1=O)C(=O)N[C@@H]([C@@H](C)O)C(=O)N1CCC[C@@H]1C(=O)N1C[C@@H](NC(=O)CNC(COCCC(=O)NCCOCCOCCOCCOC[C@H]3OC[C@H](Nc4cncc(C(F)(F)F)n4)[C@@H](O)[C@H]3O)COCCC(=O)NCCOCCOCCOCCOC[C@H]3OC[C@H](Nc4cncc(C(F)(F)F)n4)[C@@H](O)[C@H]3O)C[C@H]1C(=O)N[C@@H](C)C(=O)N2 [Compound 77]	> 7.00	–	> 7.00	> 7.00	–	–	–	–	> 7.00	–
CC(C)C[C@@H]1NC(=O)[C@H](Cc2c[nH]cn2)NC(=O)[C@H](Cc2c[nH]c3ccccc23)NC(=O)[C@H](C)NC(=O)[C@@H]2CSSC[C@H](NC(=O)[C@H](Cc3c[nH]c4ccccc34)NC(=O)[C@H](C(C)C)NC(=O)[C@H](CC(C)C)NC(=O)[C@H](CCC(=O)O)NC(=O)CNC1=O)C(=O)N[C@@H]([C@@H](C)O)C(=O)N1CCC[C@@H]1C(=O)N1C[C@@H](NC(=O)CCOCCOCCOCCNC(=O)CCCc3cn(CCCCCC(=O)NC(COCCC(=O)NCCOCCOCCOCCOC[C@@]45CO[C@@H](O4)[C@H](Nc4nc(Cl)ns4)[C@@H](O)[C@H]5O)COCCC(=O)NCCOCCOCCOCCOC[C@@]45CO[C@@H](O4)[C@H](Nc4nc(Cl)ns4)[C@@H](O)[C@H]5O)nn3)C[C@H]1C(=O)N[C@@H](CC(=O)O)C(=O)N2 [Compound 8]	–	–	–	> 7.00	> 7.00	> 7.00	–	> 7.00	–	–
CC(C)C[C@@H]1NC(=O)[C@H](Cc2c[nH]cn2)NC(=O)[C@H](Cc2c[nH]c3ccccc23)NC(=O)[C@H](C)NC(=O)[C@@H]2CSSC[C@H](NC(=O)[C@H](Cc3c[nH]c4ccccc34)NC(=O)[C@H](C(C)C)NC(=O)[C@H](CC(C)C)NC(=O)[C@H](CCC(=O)O)NC(=O)CNC1=O)C(=O)N[C@@H]([C@@H](C)O)C(=O)N1CCC[C@@H]1C(=O)N1C[C@@H](NC(=O)CCOCCOCCOCCOCCNC(=O)CCCc3cn(CCCCCC(=O)NC(COCCC(=O)NCCOCCOCCOCCOC[C@H]4OC[C@H](Nc5nccc(C(F)(F)F)n5)[C@@H](O)[C@H]4O)COCCC(=O)NCCOCCOCCOCCOC[C@H]4OC[C@H](Nc5nccc(C(F)(F)F)n5)[C@@H](O)[C@H]4O)nn3)C[C@H]1C(=O)N[C@@H](CC(=O)O)C(=O)N2 [Compound 16]	> 7.00	–	> 7.00	> 7.00	> 7.00	> 7.00	> 7.00	> 7.00	–	> 7.00
